{"source": "paper PMC8188729", "about": "(Nature, 2020)", "key": {"[1]": {"system": "HIV-1BaL", "assay": "p24 endpoint antiviral assay in macrophage cultures", "type": "cell-based", "conditions": "Human immunodeficiency virus 1, Macrophage, read-out: mean EC50"}, "[2]": {"biological_target": "HIV-1 PR (Human immunodeficiency virus type 1 group M subtype B, UniProt P04585)", "assay": "HIV-1 PR cleavage activity in vitro", "type": "biochemical"}, "[3]": {"assay": "Cytotoxicity assay", "type": "cell-based", "conditions": "human, Gal-PC-3 cells"}, "[4]": {"assay": "Cytotoxicity assay", "type": "cell-based", "conditions": "human, primary human hepatocytes"}, "[5]": {"assay": "Cytotoxicity assay", "type": "cell-based", "conditions": "human, quiescent PBMCs"}, "[6]": {"biological_target": "Gag polyprotein (Human immunodeficiency virus type 1 group M subtype B, UniProt P12493)", "assay": "biochemical", "type": "binding"}, "[7]": {"biological_target": "CA monomer (Human immunodeficiency virus type 1 group M subtype B, UniProt P03348)", "assay": "biochemical", "type": "binding"}, "[8]": {"biological_target": "CA pentamer (Human immunodeficiency virus type 1 group M subtype B, UniProt P12493, A154C/M317A/N153C/W316A)", "assay": "biochemical", "type": "binding"}, "[9]": {"system": "primary human hepatocytes", "assay": "Metabolic stability of [3H]GS-6207 in primary human hepatocytes", "type": "in vitro ADME", "conditions": "[3H]GS-6207, primary human hepatocytes"}, "[10]": {"type": "in vivo, human", "conditions": "for AUCexp: healthy volunteers, mean (%CV); for time plasma concentrations exceeded paEC95: single SC, healthy participants"}, "[11]": {"system": "HIV-1", "type": "in vivo", "conditions": "for Maximum HIV-1 RNA change through day 9: individual participants"}, "[12]": {"assay": "Study GS-US-200-4072: safety in participants living with HIV", "type": "in vivo, human", "conditions": "for Any AE / Arthralgia / Constipation / Haemorrhoids / Headache / Injection site erythema / Injection site induration / Injection site nodule / Injection site pain / Nasopharyngitis / Nausea / Oropharyngeal pain / Rash / Serious AE: Atrial fibrillation / Syphilis / Upper respiratory tract infection / Vomiting: PLWH"}, "[13]": {"system": "HIV-2 isolates", "assay": "7-day RT endpoint antiviral assay in human PBMCs, HIV-2 isolates", "conditions": "Human immunodeficiency virus 2, PBMC, read-out: mean EC50"}, "[14]": {"system": "clinical HIV-1 isolates", "assay": "7-day RT endpoint antiviral assay in human PBMCs, clinical HIV-1 isolates", "conditions": "Human immunodeficiency virus 1, PBMC"}, "[15]": {"system": "HIV-1IIIb", "assay": "In vitro two-drug combination study in HIV-1IIIB-infected MT-2 cells"}, "[16]": {"conditions": "both, human, plasma, sc, 100 mg"}, "[17]": {"conditions": "both, human, plasma, sc, 300 mg"}, "[18]": {"conditions": "both, human, plasma, sc, 450 mg"}, "[19]": {"conditions": "GS-6207 20 mg or Placebo (n = 8)"}, "[20]": {"conditions": "GS-6207 50 mg or Placebo (n = 8)"}}, "note": "Values joined by “and” are separate entries in the source; they are usually repeats but may differ in a detail not shown here. Identical values can stand only once. Like-named read-outs stand apart in the source and are kept apart here.", "data": [{"smiles": "CC(C)(C#Cc1ccc(-c2ccc(Cl)c3c(NS(C)(=O)=O)nn(CC(F)(F)F)c23)c([C@H](Cc2cc(F)cc(F)c2)NC(=O)Cn2nc(C(F)(F)F)c3c2C(F)(F)[C@@H]2C[C@H]32)n1)S(C)(=O)=O", "note": "[GS-6207]", "values": [{"measurement": "EC50", "setting": "[1]", "result": 0.056, "unit": "nM"}, {"measurement": "IC50", "setting": "[2]", "result": "> 50000", "unit": "nM"}, {"measurement": "CC50", "setting": "[3]", "result": "> 44400", "unit": "nM"}, {"measurement": "CC50", "setting": "[4]", "result": "> 50000", "unit": "nM"}, {"measurement": "CC50", "setting": "[5]", "result": "> 44400", "unit": "nM"}, {"measurement": "Kd", "setting": "[6]", "result": 1.1, "unit": "nM"}, {"measurement": "Kd", "setting": "[7]", "result": 2.5, "unit": "nM"}, {"measurement": "Kd", "setting": "[8]", "result": "0.22 ± 0.16", "unit": "nM"}, {"measurement": "koff", "setting": "[8]; CA pentamer", "result": "2.7 ± 0.4 x 10^−5 s^−1"}, {"measurement": "kon", "setting": "[8]; CA pentamer", "result": "2 ± 1 x 10^5 M^−1s^−1"}, {"measurement": "hepatic extraction", "setting": "[9]", "result": 0.8, "unit": "%"}, {"measurement": "predicted rate of hepatic clearance", "setting": "[9]", "result": 0.17, "unit": "mL/min/kg"}, {"measurement": "AUCexp", "setting": "[10]; 30 mg SC", "result": "17.6 (69.4) %"}, {"measurement": "AUCexp", "setting": "[10]; 100 mg SC", "result": "6.78 (65.0) %"}, {"measurement": "AUCexp", "setting": "[10]; 300 mg SC", "result": "5.39 (126) %"}, {"measurement": "AUCexp", "setting": "[10]; 450 mg SC", "result": "3.29 (69.9) %"}, {"measurement": "AUC(0-inf)", "setting": "[10]; both, human, plasma, sc, 30 mg", "result": 8700, "unit": "ng·h/mL"}, {"measurement": "AUC(0-t)", "setting": "[10]; both, human, plasma, sc, 30 mg", "result": 5500, "unit": "ng·h/mL"}, {"measurement": "Cmax", "setting": "[10]; both, human, plasma, sc, 30 mg", "result": 3.2, "unit": "ng/mL"}, {"measurement": "half-life", "setting": "[10]; both, human, plasma, sc, 30 mg", "result": 37, "unit": "days"}, {"measurement": "AUC(0-inf)", "setting": "[10]; [16]", "result": 27300, "unit": "ng·h/mL"}, {"measurement": "AUC(0-t)", "setting": "[10]; [16]", "result": 23600, "unit": "ng·h/mL"}, {"measurement": "Cmax", "setting": "[10]; [16]", "result": 14.7, "unit": "ng/mL"}, {"measurement": "half-life", "setting": "[10]; [16]", "result": 31.9, "unit": "days"}, {"measurement": "AUC(0-inf)", "setting": "[10]; [17]", "result": 86100, "unit": "ng·h/mL"}, {"measurement": "AUC(0-t)", "setting": "[10]; [17]", "result": 73100, "unit": "ng·h/mL"}, {"measurement": "Cmax", "setting": "[10]; [17]", "result": 47.9, "unit": "ng/mL"}, {"measurement": "half-life", "setting": "[10]; [17]", "result": 45.4, "unit": "days"}, {"measurement": "AUC(0-inf)", "setting": "[10]; [18]", "result": 108000, "unit": "ng·h/mL"}, {"measurement": "AUC(0-t)", "setting": "[10]; [18]", "result": 97600, "unit": "ng·h/mL"}, {"measurement": "Cmax", "setting": "[10]; [18]", "result": 58.4, "unit": "ng/mL"}, {"measurement": "Tmax", "setting": "[10]; [18]", "result": 14, "unit": "days"}, {"measurement": "half-life", "setting": "[10]; [18]", "result": 39.7, "unit": "days"}, {"measurement": "time plasma concentrations exceeded paEC95", "setting": "[10]; doses ≥ 100 mg", "result": "≥ 12", "unit": "weeks"}, {"measurement": "time plasma concentrations exceeded paEC95", "setting": "[10]; doses ≥ 300 mg", "result": "> 24", "unit": "weeks"}, {"measurement": "duration of sustained plasma exposure at antivirally active concentrations", "setting": "[10]; single subcutaneous dose 450 mg", "result": "> 6", "unit": "months"}, {"measurement": "Maximum HIV-1 RNA change through day 9", "setting": "[11]; 20 mg", "result": "−0.83 log10 copies ml^−1 and −1.58 log10 copies ml^−1 and −1.74 log10 copies ml^−1 and −1.43 log10 copies ml^−1 and −1.33 log10 copies ml^−1 and −1.21 log10 copies ml^−1"}, {"measurement": "Maximum HIV-1 RNA change through day 9", "setting": "[11]; 50 mg", "result": "−1.55 log10 copies ml^−1 and −1.61 log10 copies ml^−1 and −2.32 log10 copies ml^−1 and −1.16 log10 copies ml^−1 and −1.73 log10 copies ml^−1 and −2.39 log10 copies ml^−1"}, {"measurement": "Maximum HIV-1 RNA change through day 9", "setting": "[11]; 150 mg", "result": "−2.06 log10 copies ml^−1 and −1.68 log10 copies ml^−1 and −1.86 log10 copies ml^−1 and −1.49 log10 copies ml^−1 and −1.87 log10 copies ml^−1 and −1.62 log10 copies ml^−1"}, {"measurement": "Maximum HIV-1 RNA change through day 9", "setting": "[11]; 450 mg", "result": "−2.32 log10 copies ml^−1 and −2.86 log10 copies ml^−1 and −2.11 log10 copies ml^−1 and −1.83 log10 copies ml^−1 and −1.58 log10 copies ml^−1 and −2.52 log10 copies ml^−1"}, {"measurement": "mean maximum reduction in plasma HIV-1 RNA through 9 days", "setting": "[11]; single 20 mg SC", "result": 1.35, "unit": "log10"}, {"measurement": "mean maximum reduction in plasma HIV-1 RNA through 9 days", "setting": "[11]; single 50 mg SC", "result": 1.79, "unit": "log10"}, {"measurement": "mean maximum reduction in plasma HIV-1 RNA through 9 days", "setting": "[11]; single 150 mg SC", "result": 1.76, "unit": "log10"}, {"measurement": "mean maximum reduction in plasma HIV-1 RNA through 9 days", "setting": "[11]; single 450 mg SC", "result": "2.20 log10 and 2.2 log10"}, {"measurement": "Any AE", "setting": "[12]; [19]", "result": "5 (63) n (%)"}, {"measurement": "Arthralgia", "setting": "[12]; [19]", "result": "0 n (%)"}, {"measurement": "Constipation", "setting": "[12]; [19]", "result": "0 n (%)"}, {"measurement": "Haemorrhoids", "setting": "[12]; [19]", "result": "0 n (%)"}, {"measurement": "Headache", "setting": "[12]; [19]", "result": "1 (13) n (%)"}, {"measurement": "Injection site erythema", "setting": "[12]; [19]", "result": "1 (13) n (%)"}, {"measurement": "Injection site induration", "setting": "[12]; [19]", "result": "0 n (%)"}, {"measurement": "Injection site nodule", "setting": "[12]; [19]", "result": "0 n (%)"}, {"measurement": "Injection site pain", "setting": "[12]; [19]", "result": "0 n (%)"}, {"measurement": "Nasopharyngitis", "setting": "[12]; [19]", "result": "0 n (%)"}, {"measurement": "Nausea", "setting": "[12]; [19]", "result": "2 (25) n (%)"}, {"measurement": "Oropharyngeal pain", "setting": "[12]; [19]", "result": "1 (13) n (%)"}, {"measurement": "Rash", "setting": "[12]; [19]", "result": "1 (13) n (%)"}, {"measurement": "Serious AE: Atrial fibrillation", "setting": "[12]; [19]", "result": "0 n (%)"}, {"measurement": "Syphilis", "setting": "[12]; [19]", "result": "0 n (%)"}, {"measurement": "Upper respiratory tract infection", "setting": "[12]; [19]", "result": "0 n (%)"}, {"measurement": "Vomiting", "setting": "[12]; [19]", "result": "2 (25) n (%)"}, {"measurement": "Any AE", "setting": "[12]; [20]", "result": "6 (75) n (%)"}, {"measurement": "Arthralgia", "setting": "[12]; [20]", "result": "0 n (%)"}, {"measurement": "Constipation", "setting": "[12]; [20]", "result": "1 (13) n (%)"}, {"measurement": "Haemorrhoids", "setting": "[12]; [20]", "result": "1 (13) n (%)"}, {"measurement": "Headache", "setting": "[12]; [20]", "result": "0 n (%)"}, {"measurement": "Injection site erythema", "setting": "[12]; [20]", "result": "1 (13) n (%)"}, {"measurement": "Injection site induration", "setting": "[12]; [20]", "result": "1 (13) n (%)"}, {"measurement": "Injection site nodule", "setting": "[12]; [20]", "result": "1 (13) n (%)"}, {"measurement": "Injection site pain", "setting": "[12]; [20]", "result": "4 (50) n (%)"}, {"measurement": "Nasopharyngitis", "setting": "[12]; [20]", "result": "0 n (%)"}, {"measurement": "Nausea", "setting": "[12]; [20]", "result": "1 (13) n (%)"}, {"measurement": "Oropharyngeal pain", "setting": "[12]; [20]", "result": "1 (13) n (%)"}, {"measurement": "Rash", "setting": "[12]; [20]", "result": "1 (13) n (%)"}, {"measurement": "Serious AE: Atrial fibrillation", "setting": "[12]; [20]", "result": "0 n (%)"}, {"measurement": "Syphilis", "setting": "[12]; [20]", "result": "1 (13) n (%)"}, {"measurement": "Upper respiratory tract infection", "setting": "[12]; [20]", "result": "0 n (%)"}, {"measurement": "Vomiting", "setting": "[12]; [20]", "result": "1 (13) n (%)"}, {"measurement": "safety and tolerability", "setting": "[12]; single SC 20 to 450 mg, participants with untreated HIV-1 infection", "result": "generally safe and well tolerated"}, {"measurement": "EC50", "setting": "[13]", "result": 0.885, "unit": "nM"}, {"measurement": "EC50", "setting": "[14]; read-out: EC50 range", "result": "0.02 to 0.16", "unit": "nM"}, {"measurement": "EC50", "setting": "[14]; read-out: mean EC50", "result": 0.05, "unit": "nM"}, {"measurement": "Synergy volume", "setting": "[15]", "result": "18 ± 8", "unit": "μM^2.%"}]}]}
